Source: patent publication US20200281956A1, “ANTIBACTERIAL COMPOSITION CONTAINING A DEOXYHEXOSE ALKYL MONOACETAL OR MONOETHER” (TEREOS STARCH & SWEETENERS BELGIUM, priority 2015, published 2020)

Assays:
L. monocytogenes [1] = experiment: MIC on strains of Listeria (microplate dilution, CLSI); format: cell-based, Listeria monocytogenes
Description: (§1) The strains tested are reference strains and cultures that are multi-antibiotic resistant; these are clinical strains that were isolated at the “Hospice de Lyon” and are as follows: • Staphylococcus S. aureus: ATCC® 29213™, ATCC 25923, • Methicillin-resistant S. aureus staphylococcus strains (Lac-Deleo USA 300), (MU 3), (HT 2004-0012), LY 199-0053, (HT 2002-0417), (HT 2006-1004), • Daptomycin-resistant S. aureus staphylococcus strains (ST 2015-0188) (ST 2014 1288), (ST 2015-0989). • Enterococci: E. faecalis (ATCC® 29212™, clinical strains of E. faecalis enterococcus, isolated from urine: strain 015206179901 (hereinafter 9901), strain 015205261801 (hereinafter 1801) • Enterococci: E. faecium (CIP 103510), clinical strains of E. faecium enterococcus: Van A 0151850763 (hereinafter Van A); strain 015 205731401 (hereinafter 1401), • Listeria: L. monocytogenes (CIP 103575), clinical strains isolated from blood culture (015189074801, LM1), strain isolated from cerebrospinal fluid (015170199001, LM2), clinical strain isolated from blood culture (015181840701, LM3).
(§2) The cultures studied, freshly isolated (after incubation on blood agar at 37° C. for 18 h), are taken up in sterile water (10 ml) until a 0.5 McFarland (Mc), i.e. 1 to 2×10^8 CFU (bacteria)/cm^3, suspension is obtained. The bacterial suspension was then diluted in order to obtain a final concentration of 1×10^6 CFU/cm^3.
(§3) Each well contains a final identical amount of Mueller-Hinton medium (rich medium enabling bacterial culture) and of bacteria of 0.5×10^6 CFU/cm^3.
The compounds of interest to be tested are dissolved in ethanol or DMSO at 25 mg/ml before being diluted, with the dilution being doubled each time, to different concentrations. On the multi-well plate, a first series was provided comprising the culture medium without the compound of interest to be tested. This corresponds to the growth control (control wells). These controls serve as a reference for comparing bacterial growth with those of the following wells comprising different concentrations of the compound of interest to be tested. The second series of wells comprises the parent solution of the compound of interest to be tested for a concentration in the well of 256 mg/l (7 mM). Each series of wells was diluted, with the dilution being doubled each time, until the last series for a final concentration of 0.25 mg/l (0.0007 mM). Each concentration is duplicated within the same plate. The plate is incubated for 18 h at 37° C. […]
(§4) The minimum inhibitory […] (MIC) are determined on Gram-positive bacterial strains according to the recommendations of the “Clinical Laboratory Standards Institute” (Clinical-Laboratory-Standards-Institute, 6th ed. Approved standard M100-S17. CLSI, Wayne, Pa., 2007). […]

E. faecalis = experiment: MIC on E. faecalis enterococcal strains (microplate dilution, CLSI); format: cell-based, Enterococcus faecalis
Description: as §1, §2, §3
(§5) The compounds of interest to be tested are dissolved in ethanol or DMSO at 25 mg/ml before being diluted, with the dilution being doubled each time, to different concentrations. […]
as §4

E. faecium = experiment: MIC on E. faecium enterococcal strains (microplate dilution, CLSI); format: cell-based, Enterococcus faecium
Description: as §1, §2, §3, §5, §4

S. aureus [2] = experiment: MIC on S. aureus staphylococcal strains (microplate dilution, CLSI); format: cell-based, Staphylococcus aureus
Description: as §1, §2, §3
The compounds of interest to be tested are dissolved in ethanol or DMSO at 25 mg/ml before being diluted, with the dilution being doubled each time, to different concentrations. On the multi-well plate, a first series was provided comprising the culture medium without the compound of interest to be tested. This corresponds to the growth control (control wells). These controls serve as a reference for comparing bacterial growth with those of the following wells comprising different concentrations of the compound of interest to be tested. The second series of wells comprises the parent solution of the compound of interest to be tested for a concentration in the well of 256 mg/l (7 mM). Each series of wells was diluted, with the dilution being doubled each time, until the last series for a final concentration of 0.25 mg/l (0.0007 mM). Each concentration is duplicated within the same plate. The plate is incubated for 18 h at 37° C. […] In the case of antibacterial activity, bacterial growth is inhibited which is reflected by the absence of appearance of cloudiness or bacterial pellet.
The minimum inhibitory […] (MIC) are determined on Gram-positive bacterial strains according to the recommendations of the “Clinical Laboratory Standards Institute” (Clinical-Laboratory-Standards-Institute, 6th ed. Approved standard M100-S17. CLSI, Wayne, Pa., 2007).
as §2, with “i.e.” for “i.e. 1”, “10^8” for “2×10^8”, “10^6” for “1×10^6”

esterases = conditions: cited from earlier work
L. monocytogenes [3] = conditions: literature, in words; cited from earlier work
S. aureus [4] = conditions: literature, in words; cited from earlier work

Molecule: 3-O-Dodecyl-1,4-D-sorbitan, 5-O-dodecyl-1,4-D-sorbitan and 6-O-dodecyl-1,4-D-sorbitan [reference compound]
- Minimum inhibitory concentration (MIC) (L. monocytogenes [1]; L. monocytogenes CIP 103575): 32 µg/mL
- Minimum inhibitory concentration (MIC) (L. monocytogenes [1]; L. monocytogenes clinical strain LM1 (blood culture)): 16 µg/mL
- Minimum inhibitory concentration (MIC) (L. monocytogenes [1]; L. monocytogenes clinical strain LM2 (cerebrospinal fluid)): 32 µg/mL
- Minimum inhibitory concentration (MIC) (L. monocytogenes [1]; L. monocytogenes clinical strain LM3 (blood culture)): 32 µg/mL
- Minimum inhibitory concentration (MIC) (E. faecalis; E. faecalis ATCC 29212): 8 µg/mL
- Minimum inhibitory concentration (MIC) (E. faecalis; E. faecalis clinical strain 1801 (urine)): 8 µg/mL
- Minimum inhibitory concentration (MIC) (E. faecalis; E. faecalis clinical strain 9901 (urine)): 16 µg/mL
- Minimum inhibitory concentration (MIC) (E. faecium; E. faecium CIP 103510): 16 µg/mL
- Minimum inhibitory concentration (MIC) (E. faecium; E. faecium clinical strain 1401): 8 µg/mL
- Minimum inhibitory concentration (MIC) (E. faecium; E. faecium clinical strain Van A): 16 µg/mL
- Minimum inhibitory concentration (MIC) (S. aureus [2]; S. aureus ATCC 25923, reference strain): 32 µg/mL
- Minimum inhibitory concentration (MIC) (S. aureus [2]; S. aureus ATCC 29213, reference strain): 32 µg/mL
- Minimum inhibitory concentration (MIC) (S. aureus [2]; daptomycin-resistant S. aureus ST 2014 1288): 64 µg/mL
- Minimum inhibitory concentration (MIC) (S. aureus [2]; daptomycin-resistant S. aureus ST 2015-0188): 64 µg/mL
- Minimum inhibitory concentration (MIC) (S. aureus [2]; daptomycin-resistant S. aureus ST 2015-0989): 256 µg/mL
- Minimum inhibitory concentration (MIC) (S. aureus [2]; methicillin-resistant S. aureus HT 2002-0417): 32 µg/mL
- Minimum inhibitory concentration (MIC) (S. aureus [2]; methicillin-resistant S. aureus HT 2004-0012): 32 µg/mL
- Minimum inhibitory concentration (MIC) (S. aureus [2]; methicillin-resistant S. aureus HT 2006-1004): 32 µg/mL
- Minimum inhibitory concentration (MIC) (S. aureus [2]; methicillin-resistant S. aureus LY 199-0053): 32 µg/mL
- Minimum inhibitory concentration (MIC) (S. aureus [2]; methicillin-resistant S. aureus Lac-Deleo USA 300): 32 µg/mL
- Minimum inhibitory concentration (MIC) (S. aureus [2]; methicillin-resistant S. aureus MU 3): 64 µg/mL

Molecule: CCCCCCCCCCCC1OCC2O[C@H](OC)C(O)C(O)[C@H]2O1 (stereo partly drawn) [compound 1d, Methyl 4,6-O-dodecylidene-α-D-galactopyranoside]
- melting point: 115 °C

Molecule: CCCCCCCCCCCC(=O)OCC(O)CO (stereo not shown) [monolaurin]
- degradation / half-life (ester function sensitive to esterases) (esterases): quickly degraded

Molecule: Dodecanoyl sucrose
- activity against L. monocytogenes (L. monocytogenes [3]): particularly active
- inhibition of the growth of S. aureus (S. aureus [4]): weakly inhibiting the growth
